Measurements reported in publication PMC3159909, “Alliinase from Ensifer adhaerens and Its Use for Generation of Fungicidal Activity” (AMB Express, 2011).
Like-named read-outs stand apart in the source and are kept apart here.

System: T1, P-19486 alliinase
T1 construct: homodimer 96 kDa, subunit 48 kDa; PLP-dependent
Assay: colorimetric pyruvic acid production
Type: biochemical, Ensifer adhaerens
Settings: 20 uM PLP, 50 mM sodium phosphate pH 7.0, 30°C, read-out: Kinetic constants / Km
From the text: colorimetric pyruvic acid production on P-19486 alliinase

Structure (SMILES) | Km [mM] | Km (diastereomer mixture) [mM]
C=CC[S@+]([O-])C[C@H](N)C(=O)O [(+)-Alliin] | 5.7 | –
C=CC[S+]([O-])C[C@H](N)C(=O)O (mixture of isomers) [(±)-Alliin] | – | 2.3
C=CCSC[C@H](N)C(=O)O [S-Allyl-L-cysteine] | 10.6 | –
